# From patent US6831069B2, “Pyrrolo[2,3-d]pyrimidine nucleoside analogs” (priority 1999, dated 2004)
# Tested on: BALB/c mice
# Assay: Contact hypersensitivity (CHS) to DNFB
# Type: in vivo, mouse
# Settings: for mean decrease in ear thickness (inhibition of CHS): 24 h post-challenge
# Procedure: Reactivity to the contact allergen, DNFB, was determined, in BALB/c mice, as previously described (Ishii, N., K. Takahashi, H. Nakajima, S. Tanaka, P. W. Askenase. 1994. DNFB contact sensitivity (CS) in BALB/c and C3H/He mice. J. Invest. Dermatol. 102:321). Briefly, mice were sensitized by application of 20 μl of 0.3% DNFB in acetone: olive oil, 4:1 onto the shaved abdomens of naive mice. For optimal elicitation of CHS, the mice were challenged on both sides of each ear with 20 μl of 0.12% DNFB, five days after sensitization. Unsensitized mice were also challenged and used as controls in each experiment. After 24 h, ear thickness measurements were taken and response to DNFB was assessed by subtracting […]. Where indicated, 7-β-D-ribofuranosyl-4-oxopyrrolo-[2,3-d]pyrimidine-5-carboxamidine, at a dose of 6.2 μg in 50 μl PBS (0.3 mg/kg) or 12.4 μg in 100 μl PBS (0.6 mg/kg), was administered by i.p. injection at the time of challenge with DNFB. These doses of 7-β-D-ribofuranosyl-4-oxopyrrolo[2,3-d]pyrimidine-5-carboxamidine gave maximal effect in preliminary optimization studies. Following final ear thickness measurements, mice were sacrificed by cervical dislocation and axillary/lateral axillary lymph nodes were removed. Following isolation of total cellular RNA from isolated lymph node cells, RT-PCR and Southern Blot analyses were performed to monitor for mouse IFNg, IL-2, and IL-10 mRNA levels.
# Total cellular RNA was extracted using Trizol reagent (Life Technologies, Gaithersburg, Md.). The cDNA synthesis reaction was performed using oligo (dT)12-18 primer and Superscript II (Life Technologies) reverse transcriptase. The PCR reaction (GeneAmp PCR kit, Perkin-Elmer, Foster City, Calif.) consisted of a 50 μl mixture containing cDNA, dNTPs (each at 200 μM), 0.5 μM of each primer pair and 1.25 unit of Taq polymerase. The primers for human IL-2, IL-10, IL-4, IL-6, IL-1b, IFNg, c-myc, IL-2R, CD40L (Stratagene, La Jolla, Calif.), iNOS (Clontech, Palo Alto, Calif.) and pHE7 ribosomal gene were used. Typical amplification conditions included a 5-minute denaturation at 94° C. and a 5 minute annealing at 60° C. followed by 35 cycles of 1.5 min at 72° C., 45 sec at 94° C. and 45 sec at 60° C., with a final extension time of 10 min at 72° C. The primers for mouse IL-2, IFNγ, and β-actin were obtained from Stratagene and mouse IL-10 from Clontech. Amplification conditions for the Stratagene mouse cytokine primers were a 5 min denaturation at 94° C. and a 5 min annealing at 60° C. followed by 35 cycles of 1.5 min at 72° C., 45 sec at 94° C. and 45 sec at 60° C., with a final extension time of 10 min at 72° C. For IL-10, the PCR conditions were a 5-minute denaturation at 94° C. followed by 35 cycles of 45 sec at 94° C., 45 sec at 60° C. and 2 min at 72° C., with a final extension time of 7 min at 72° C.
# For each gene product, the optimum cDNA dilution was determined experimentally and was defined as the cDNA dilution that would achieve a detectable concentration that was well below saturating conditions. […] Equivalent loading was assessed following hybridization with a probe generated from pHE7 sense primer. Washed blots were then analyzed using a Phosphorimager (Biorad, Richmond, Calif.). Relative changes in cytokine or other test mRNA were presented as densitometric readings and normalized for any variations in input RNA by determining the densitometric ratio of mRNA of interest relative to mRNA of the housekeeping gene, pHE7.
# [1] = lymph node cells, DNFB-primed mice
compound,measurement,setting,value
"N=C(N)c1cn([C@@H]2O[C@H](CO)[C@@H](O)[C@H]2O)c2nc[nH]c(=O)c12 [ICN 10776, 7-β-D-ribofuranosyl-4-oxopyrrolo-[2,3-d]pyrimidine-5-carboxamidine]",mean decrease in ear thickness (inhibition of CHS),0.3 mg/kg i.p. at time of challenge,42%
same,mean decrease in ear thickness (inhibition of CHS),0.6 mg/kg i.p. at time of challenge,68%
same,IFNγ mRNA levels,[1],substantially reduced
same,IL-2 mRNA levels,[1],substantially reduced
same,murine IL-10 mRNA expression,[1],greatly enhanced
